The values that follow come from patent US7947307B2, “Methods and compositions for imaging” (Mount Sinai School of Medicine of New York University, priority 2004, dated 2011).

The conditions of data set [1]: cited from earlier work.
For data set [2] the following is noted: cited from earlier work. This is another data set of the same source.
The conditions of data set [3]: cited from earlier work. The source holds these as a separate data set.
Data set [4] concerns elicited peritoneal macrophages isolated from apoE-/- mice. As to the kind of experiment: Cholesterol efflux assay in cholesterol-loaded elicited peritoneal macrophages. Type of data set: cell-based, mouse. The following applies: 1.5 μM. Here is the method: Cholesterol efflux assays. Human apo A-I was prepared as described before (25). Low density lipoprotein (LDL, 1.019<density<1.063 g/mL) and subfraction 3 of high density lipoprotein (HDL3, 1.125<density<1.21 g/mL) were isolated by sequential ultracentrifugation of human plasma. Lipoproteins were extensively dialyzed against phosphate buffered saline (PBS) and protein content measured with a CBQCA Protein Quantitation Kit (Molecular Probes, Eugene, Oreg.). The quality and purity of the lipoprotein preparations was confirmed by SDS-PAGE by the identification of appropriate apolipoproteins. Acetylated LDL (AcLDL) was prepared according to (26). Dulbeco's Modified Eagle medium (DMEM), L-glutamine, Penicillin-Streptomycin solutions, fetal bovine serum (FBS), and PBS were purchased from the Invitrogen Corporation (Carlsbad, Calif.). […]
For measurement of cholesterol efflux, aliquots of the media were collected at 6 and 18 h, and tritium cpm measured by scintillation counting. […] Free and esterified cholesterol content was measured prior to and after efflux under the various treatment conditions. After extraction of lipids, cells were lysed with 0.2 N NaOH and protein content determined by Lowry assay. Total cholesterol and free cholesterol were determined by using kits from Roche Applied Science. Cholesteryl ester content was determined by subtracting free cholesterol from total cholesterol.

The conditions of data set [5]: mouse; cited from earlier work.
[6] abbreviates: concentration 1M (values in parentheses).

Read-outs that look alike come from different tables or passages of the source.

As for `O=C([O-])CN1CCN(CC(=O)[O-])CCN([C@H](CO)[C@H](O)CO)CCN(CC(=O)[O-])CC1.[Gd+3]` (racemic) [Gadobutrol, Gd-DO3A-butrol], in data set [1], the r1, 0.5 T 37° C. is 3.6 mM⁻¹ s⁻¹. In addition, the Viscosity in data set [2] (concentration 0.5M) is 1.4 cP; in data set [2] (setting [6]), “(3.7) cP”. Moreover, the Osmolality in data set [3] (concentration 0.5M) was 0.57 osmol/kg; in data set [3] (setting [6]), “(1.39) osmol/kg”.
For `O=C(Nc1ccccc1)c1cc([N+](=O)[O-])ccc1Cl` [GW9662], the “cholesterol efflux to HDL” value in data set [4] ([3H]cholesterol-AcLDL loaded macrophages with F-1394, acceptor HDL3 50 μg/mL) was “did not affect”. The “cholesterol efflux to apoA-I” value in data set [4] ([3H]cholesterol-AcLDL loaded macrophages with F-1394, acceptor apoA-I 50 μg/mL) is “did not affect”.
Regarding `CNC[C@H](O)[C@@H](O)[C@H](O)[C@H](O)CO.CNC[C@H](O)[C@@H](O)[C@H](O)[C@H](O)CO.O=C([O-])CN(CCN(CC(=O)[O-])CC(=O)O)CCN(CC(=O)O)C(COCc1ccccc1)C(=O)[O-].[Gd+3]` (centres unmarked) [Gadobenate, Gd-BOPTA], the r1, 0.5 T 37° C. in data set [1] is 4.4 mM⁻¹ s⁻¹. Besides, the Viscosity in data set [2] (concentration 0.5M) is reported as 5.3 cP. Further, the Osmolality in data set [3] (concentration 0.5M) is 1.97 osmol/kg.
Take `CNC(=O)CN(CCN(CCN(CC(=O)[O-])CC(=O)NC)CC(=O)[O-])CC(=O)[O-].[Gd+3]` [Gadodiamide, Gd-DTPA-BMA]: the r1, 0.5 T 37° C. in data set [1] is 3.9 mM⁻¹ s⁻¹. Further, the Viscosity in data set [2] (concentration 0.5M) is given as 1.4 cP; in data set [2] (setting [6]), “(3.9) cP”. Further, the Osmolality is 0.79 osmol/kg in data set [3] (concentration 0.5M) and “(1.90) osmol/kg” in data set [3] (setting [6]).
In the case of `CNC[C@H](O)[C@@H](O)[C@H](O)[C@H](O)CO.CNC[C@H](O)[C@@H](O)[C@H](O)[C@H](O)CO.O=C([O-])CN(CCN(CC(=O)[O-])CC(=O)O)CCN(CC(=O)[O-])CC(=O)O.[Gd+3]` [Gadopenetate, Gd-DTPA], the r1, 0.5 T 37° C. in data set [1] is 3.8 mM⁻¹ s⁻¹. In data set [2] (concentration 0.5M), the Viscosity is 2.9 cP. Further, the Osmolality in data set [3] (concentration 0.5M) was 1.96 osmol/kg.
With `O=C([O-])CN1CCN(CC(=O)[O-])CCN(CC(=O)[O-])CCN(CC(=O)[O-])CC1.[Gd+3]` [Gadoterate, Gd-DOTA], in data set [1], the r1, 0.5 T 37° C. is 3.6 mM⁻¹ s⁻¹. Moreover, the Viscosity in data set [2] (concentration 0.5M) is 2.0 cP; in data set [2] (setting [6]), “(11.3) cP”. In addition, the Osmolality was 1.35 osmol/kg in data set [3] (concentration 0.5M) and “(4.02) osmol/kg” in data set [3] (setting [6]).
Consider `Cc1[nH+]cc(COP(=O)([O-])[O-])c(CN(CCN(CC(=O)[O-])Cc2c(COP(=O)([O-])O)c[nH+]c(C)c2O)CC(=O)[O-])c1O.[Mn].[Na+].[Na+].[Na+]` [Mangafodipir, Mn-DPDP], for which the r1, 0.5 T 37° C. in data set [1] was 1.9 mM⁻¹ s⁻¹. For the same compound, in data set [2] (concentration 0.01M), the Viscosity is recorded as 0.7 cP. Moreover, in data set [3] (concentration 0.01M), the Osmolality is 0.29 osmol/kg.
Take Gd-DTPA-BMEA [Gadoversetamide]: in data set [1], the r1, 0.5 T 37° C. is 4.7 mM⁻¹ s⁻¹. Further, in data set [2] (concentration 0.5M), the Viscosity is listed as 2.0 cP. In addition, the Osmolality in data set [3] (concentration 0.5M) is 1.11 osmol/kg.
For Gd-HPDO3A [Gadoteridol], the r1, 0.5 T 37° C. in data set [1] was 3.7 mM⁻¹ s⁻¹. The figures for the Viscosity in data set [2] (concentration 0.5M) and in data set [2] (setting [6]) were 1.3 cP and “(3.9) cP”, respectively. For the same compound, the Osmolality is reported as 0.63 osmol/kg in data set [3] (concentration 0.5M) and “(1.91) osmol/kg” in data set [3] (setting [6]).
Regarding HDL-apoAI: apolipoprotein AI of HDL, the “t1/2 in the circulation” value in data set [5] is “roughly 10 h”.
